Measurements: PMC6199744, “Development of Chemical Proteomics for the Folateome and Analysis of the Kinetoplastid Folateome” (ACS Infectious Diseases, 2018)
Read-outs that look alike come from different tables or passages of the source.

Tests used:
Type in all cases: binding
[1] = target: T1, HeLa cell extract proteins (Homo sapiens, UniProt Q13616)
T1 construct: endogenous in cells; host or cells: HeLa cell extract

[2] = target: T2, HeLa cell extract proteins (Homo sapiens, UniProt Q6L8Q7)
T2 construct: endogenous in cells; host or cells: HeLa cell extract
T2 sequence (Q6L8Q7 43-609): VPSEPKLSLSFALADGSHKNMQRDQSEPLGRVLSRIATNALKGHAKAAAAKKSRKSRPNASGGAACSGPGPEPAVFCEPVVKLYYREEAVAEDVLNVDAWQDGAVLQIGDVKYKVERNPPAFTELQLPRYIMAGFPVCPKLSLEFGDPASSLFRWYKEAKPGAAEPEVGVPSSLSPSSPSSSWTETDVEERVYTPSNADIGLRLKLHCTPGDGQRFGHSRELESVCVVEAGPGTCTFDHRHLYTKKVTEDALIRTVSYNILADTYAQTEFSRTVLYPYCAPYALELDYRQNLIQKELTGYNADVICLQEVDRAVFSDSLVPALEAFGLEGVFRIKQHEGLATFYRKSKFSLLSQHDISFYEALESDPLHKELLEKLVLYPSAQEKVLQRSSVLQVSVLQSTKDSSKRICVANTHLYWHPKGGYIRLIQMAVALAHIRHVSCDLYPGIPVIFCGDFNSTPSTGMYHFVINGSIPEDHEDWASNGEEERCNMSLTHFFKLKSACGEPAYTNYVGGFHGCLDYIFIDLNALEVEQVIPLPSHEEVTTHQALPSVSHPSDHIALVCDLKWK

[3] = target: T3, HeLa cell extract proteins (Homo sapiens, UniProt O76071)
T3 construct: endogenous in cells; host or cells: HeLa cell extract

[4] = target: T4, HeLa cell extract proteins (Homo sapiens, UniProt Q9Y5V3); conditions: captured protein MAGED1; HeLa
T4 construct: endogenous in cells; host or cells: HeLa cell extract
T4 sequence (Q9Y5V3 1-778): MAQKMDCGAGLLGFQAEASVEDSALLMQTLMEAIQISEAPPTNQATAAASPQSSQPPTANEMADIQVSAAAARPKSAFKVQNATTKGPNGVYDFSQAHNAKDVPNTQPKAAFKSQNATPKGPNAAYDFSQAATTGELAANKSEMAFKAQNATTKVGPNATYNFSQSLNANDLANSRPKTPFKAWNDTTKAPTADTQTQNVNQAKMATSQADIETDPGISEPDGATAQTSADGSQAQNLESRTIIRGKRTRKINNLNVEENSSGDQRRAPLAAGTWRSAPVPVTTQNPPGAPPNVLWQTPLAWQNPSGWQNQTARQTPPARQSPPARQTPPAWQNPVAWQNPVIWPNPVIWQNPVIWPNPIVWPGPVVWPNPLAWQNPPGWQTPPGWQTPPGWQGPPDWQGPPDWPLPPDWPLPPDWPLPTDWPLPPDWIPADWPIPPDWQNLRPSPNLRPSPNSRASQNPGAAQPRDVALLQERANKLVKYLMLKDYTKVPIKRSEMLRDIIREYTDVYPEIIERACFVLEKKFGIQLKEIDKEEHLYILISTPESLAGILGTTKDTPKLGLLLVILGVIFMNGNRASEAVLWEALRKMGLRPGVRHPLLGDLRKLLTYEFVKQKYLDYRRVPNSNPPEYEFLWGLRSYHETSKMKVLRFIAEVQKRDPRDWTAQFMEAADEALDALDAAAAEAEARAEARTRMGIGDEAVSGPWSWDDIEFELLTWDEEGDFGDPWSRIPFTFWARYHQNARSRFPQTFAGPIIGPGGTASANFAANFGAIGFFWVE

[5] = target: T5, HeLa cell extract proteins (Homo sapiens, UniProt P25786); conditions: protein PSMA1; HeLa
T5 construct: endogenous in cells; host or cells: HeLa cell extract

[6] = target: T6, HeLa cell extract proteins (Homo sapiens, UniProt O00767); conditions: captured protein SCD; HeLa
T6 construct: endogenous in cells; host or cells: HeLa cell extract
T6 sequence (O00767 1-359): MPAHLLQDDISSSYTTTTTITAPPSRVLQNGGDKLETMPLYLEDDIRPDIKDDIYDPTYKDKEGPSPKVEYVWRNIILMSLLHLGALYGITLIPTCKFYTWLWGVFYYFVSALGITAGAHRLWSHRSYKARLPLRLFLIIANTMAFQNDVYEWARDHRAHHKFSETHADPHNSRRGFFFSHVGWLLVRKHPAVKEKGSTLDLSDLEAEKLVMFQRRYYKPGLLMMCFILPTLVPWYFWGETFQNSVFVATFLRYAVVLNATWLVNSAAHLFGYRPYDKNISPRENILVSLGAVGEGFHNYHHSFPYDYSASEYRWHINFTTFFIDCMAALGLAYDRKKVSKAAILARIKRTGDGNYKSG

[7] = target: T7, HeLa cell extract proteins (Homo sapiens, UniProt Q05639); conditions: protein EEF1A2; HeLa
T7 construct: endogenous in cells; host or cells: HeLa cell extract
T7 sequence (Q05639 1-463): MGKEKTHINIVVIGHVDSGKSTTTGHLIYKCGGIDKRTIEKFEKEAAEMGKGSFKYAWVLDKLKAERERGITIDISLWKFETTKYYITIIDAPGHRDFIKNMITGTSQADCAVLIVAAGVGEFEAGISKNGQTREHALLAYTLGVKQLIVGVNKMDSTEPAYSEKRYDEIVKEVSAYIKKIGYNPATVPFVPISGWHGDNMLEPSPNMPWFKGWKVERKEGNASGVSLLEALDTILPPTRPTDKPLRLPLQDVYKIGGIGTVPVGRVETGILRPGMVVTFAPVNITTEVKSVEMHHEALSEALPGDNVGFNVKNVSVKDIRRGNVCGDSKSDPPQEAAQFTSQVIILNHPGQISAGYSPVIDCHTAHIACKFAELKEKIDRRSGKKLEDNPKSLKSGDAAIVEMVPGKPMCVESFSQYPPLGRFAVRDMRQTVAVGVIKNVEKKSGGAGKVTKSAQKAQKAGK

T1 sequence (Q13616 whole entry): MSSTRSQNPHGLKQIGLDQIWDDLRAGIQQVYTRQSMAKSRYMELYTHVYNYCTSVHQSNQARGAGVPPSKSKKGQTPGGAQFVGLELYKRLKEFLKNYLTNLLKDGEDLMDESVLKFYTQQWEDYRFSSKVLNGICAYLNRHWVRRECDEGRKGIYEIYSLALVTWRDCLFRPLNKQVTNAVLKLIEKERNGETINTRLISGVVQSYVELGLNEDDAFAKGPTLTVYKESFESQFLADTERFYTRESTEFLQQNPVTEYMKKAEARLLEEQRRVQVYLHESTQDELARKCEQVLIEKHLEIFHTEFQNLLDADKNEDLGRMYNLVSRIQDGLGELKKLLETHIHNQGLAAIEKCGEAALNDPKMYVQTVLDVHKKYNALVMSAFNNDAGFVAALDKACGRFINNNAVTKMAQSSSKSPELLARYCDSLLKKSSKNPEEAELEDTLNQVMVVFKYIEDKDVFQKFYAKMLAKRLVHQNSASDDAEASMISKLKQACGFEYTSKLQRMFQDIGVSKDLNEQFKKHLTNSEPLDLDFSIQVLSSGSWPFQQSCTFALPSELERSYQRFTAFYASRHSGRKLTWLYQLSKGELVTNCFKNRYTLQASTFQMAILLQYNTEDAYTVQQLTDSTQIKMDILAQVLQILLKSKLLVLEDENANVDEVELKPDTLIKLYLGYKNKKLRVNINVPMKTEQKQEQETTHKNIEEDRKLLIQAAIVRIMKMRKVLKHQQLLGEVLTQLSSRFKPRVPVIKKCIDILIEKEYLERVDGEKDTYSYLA
T5 sequence (P25786 whole entry): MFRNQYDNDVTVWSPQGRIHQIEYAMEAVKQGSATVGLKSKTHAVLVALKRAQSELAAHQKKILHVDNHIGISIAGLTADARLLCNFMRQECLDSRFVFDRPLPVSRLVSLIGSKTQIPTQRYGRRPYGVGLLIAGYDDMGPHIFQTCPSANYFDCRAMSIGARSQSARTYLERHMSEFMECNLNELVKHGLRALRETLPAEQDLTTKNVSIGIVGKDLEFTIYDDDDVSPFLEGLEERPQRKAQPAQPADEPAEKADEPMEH
T3 sequence (O76071 whole entry): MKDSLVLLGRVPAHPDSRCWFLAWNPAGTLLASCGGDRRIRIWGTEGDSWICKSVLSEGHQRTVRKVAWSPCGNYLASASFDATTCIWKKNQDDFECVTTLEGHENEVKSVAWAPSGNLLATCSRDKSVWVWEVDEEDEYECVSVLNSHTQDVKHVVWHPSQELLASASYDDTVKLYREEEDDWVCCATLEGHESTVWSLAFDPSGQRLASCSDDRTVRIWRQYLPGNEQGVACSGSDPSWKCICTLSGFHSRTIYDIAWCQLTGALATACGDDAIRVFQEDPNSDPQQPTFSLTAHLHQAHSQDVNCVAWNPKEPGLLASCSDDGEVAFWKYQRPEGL

Row | SMILES | fold changes relative to vehicle control ([1]; HeLa, protein CUL1) | fold changes relative to vehicle control ([2]; HeLa, protein PDE12) | fold changes relative to vehicle control ([3]; HeLa, protein CIAO1) | fold changes relative to vehicle control [4] | fold changes relative to vehicle control [5] | fold changes relative to vehicle control [6] | fold changes relative to vehicle control [7] | other results
1 | Nc1nc2c(c(=O)[nH]1)N(C=O)C(CNc1ccc(C(=O)N[C@@H](CCC(=O)O)C(=O)O)cc1)CN2 (stereo partly drawn) [LEU, leucovorin] | 0.98 | 0.93 | 0.94 |  |  |  |  | 
2 | Nc1nc2[nH]cc(CCc3ccc(C(=O)N[C@@H](CCC(=O)O)C(=O)O)cc3)c2c(=O)[nH]1 [PTX, pemetrexed] |  |  |  |  |  |  |  | fold changes relative to vehicle control [1]: 1.03; fold changes relative to vehicle control [2]: 1.04; fold changes relative to vehicle control [3]: 0.86
3 | CCCCCCOc1ccc(Cc2cnc(N)nc2N)cc1 [compound 1] |  |  |  | 0.98 | 1.2 | 0.92 | 1.09 | 
4 | CCCCCCOc1cccc(Cc2cnc(N)nc2N)c1 [compound 2] |  |  |  | 0.78 | 1.36 | 0.91 | 2.29 | 
5 | Nc1nc2cccc(-c3ccccc3)c2n1Cc1ccc(Cl)c(Cl)c1 [compound 3] |  |  |  | 0.88 | 0.97 | 1 | 0.82 | 
6 | NCCOCCOCC(=O)Nc1nc2ncc(CNc3ccc(C(=O)NC(CCC(=O)O)C(=O)O)cc3)nc2c(=O)[nH]1 (stereo not drawn) [compound 6] | 1.22 | 1.1 | 0.93 |  |  |  |  | 
7 | NCCCNc1ccc(C(=O)NC(CCC(=O)O)C(=O)O)cc1 (stereo not drawn) [compound 7] | 1.02 | 1.34 | 0.91 |  |  |  |  | 
